# Reference: patent publication US9981043B2, “Analgesic conjugates” (priority 2013, dated 2018)
# What was measured:
# C3H/HeNCrlVr mice = settings: intrathecal; spontaneous pain, mechanical allodynia, thermal hyperalgesia; cited from earlier work
# live mice = assay: Respiratory depression (Mouse Ox O2 saturation); type: in vivo; settings: i.t.; dose 100 times the ED90
# Procedure: Respiratory depression was measured in live mice using the Mouse Ox (small animal Oximeter from STARR Life Sciences Corp, Oakmont, Pa.). CollarClip™—(Un-Anesthetized Neck Sensor) for mice was used as the site for measuring the data. Day one of each experiment involved training the animals using a disposable CollarClip™. The collar was left on for approximately one hour. […] Mice were monitored for a 60-minute period, with measurements 10-20-30 and 60 minutes.
# Respiratory depression was measured in live mice using the Mouse Ox (small animal Oximeter from STARR Life Sciences Corp, Oakmont, Pa.). CollarClip™ (Un-Anesthetized Neck Sensor) for mice was used as the site for measuring the data.
# Day one of each experiment involved training the animals using a disposable CollarClip™. The collar was left on for approximately one hour.
# Mice were monitored for a 60-minute period, with measurements 10-20-30 and 60 minutes.
Compound,effect on bone cancer-evoked pain (C3H/HeNCrlVr mice),% of mice with O2 Saturation less than 90% (live mice)
Cc1cccc(C#Cc2ccccc2)n1 [MPEP],attenuated bone cancer-evoked spontaneous pain,–
"CN1CC[C@]23c4c5ccc(O)c4O[C@H]2[C@@H](O)C=C[C@H]3[C@H]1C5 [Morphine, reference compound]",–,50%
